Data: patent US20240167075A1, “METHODS FOR ASSAYING ENZYME ACTIVITY” (Regeneron Pharmaceuticals, Inc., priority 2022, published 2024)
Entries after “also recorded” stand apart in the source; their conditions may differ.

B1: β4GALT1 with N352S mutation: missense variant (rs551564683, p.Asn352Ser) in β4GALT1 (protein, UniProt P15291 1-398, looked up, variant N352S)
chain: MRLREPLLSGSAAMPGASLQRACRLLVAVCALHLGVTLVYYLAGRDLSRLPQLVGVSTPLQGGSNSAAAIGQSSGELRTGGARPPPPLGASSQPRPGGDSSPVVDSGPGPASNLTSVPVPHTTALSLPACPEESPLLVGPMLIEFNMPVDLELVAKQNPNVKMGGRYAPRDCVSPHKVAIIIPFRNRQEHLKYWLYYLHPVLQRQQLDYGIYVINQAGDTIFNRAKLLNVGFQEALKDYDYTCFVFSDVDLIPMNDHNAYRCFSQPRHISVAMDKFGFSLPYVQYFGGVSALSKQQFLTINGFPNNYWGWGGEDDDIFNRLVFRGMSISRPNAVVGRCRMIRHSRDKKNEPSPQRFDRIAHTKETMLSDGLNSLTYQVLDVQRYPLYTQITVDIGTPS

Legend:
Format in all cases: biochemical
[1] = system: β4GALT1; assay: commercial Phosphate Glycosyltransferase Activity kit (R&D Systems), malachite green phosphate detection; conditions: UDP-Gal glycosyl donor, coupling phosphatase; FIG. 4
Description: The commercial Phosphate Glycosyltransferase Activity kit was purchased from R&D Systems. The principle of the assay along with the materials provided were utilized according to manufacturer's conditions. In brief, a diphosphonucleotide sugar (such as UDP-Gal) is used as a glycosyl donor and mixed with a glycosyl acceptor, a phosphatase, and a glycosyltransferase. Glycosyltransferase activity exposes a phosphate of the glycosyl donor to phosphatase activity, releasing free phosphate. The amount of phosphate present should be directly proportional to the amount of formed glycosylated product. The kit also uses a specific phosphatase to remove an inorganic phosphate quantitatively from UDP. The released inorganic phosphate is subsequently quantitated by sensitive colorimetric malachite green phosphate detecting reagents. The amount of inorganic phosphate released by the coupling phosphatase should be equal to the nucleotide sugar consumed or glycoconjugate product generated. Therefore, the rate of inorganic phosphate products should reflect the kinetics of a glycosyltransferase reaction (specific activity of the enzyme). The steps as performed are outlined in FIG. 3.
To estimate the amount of UDP produced in the enzymatic reaction, a phosphate standard curve was established according to manufacturer's conditions. […]

[2] = system: β4GALT1; assay: HILIC-UV/MS based assay of β4GALT1 activity (method of Montasser et al.)
Description: Montasser et al. attempted to assay enzyme activity using a method involving quantification of the β4GALT1 substrate UDP-Gal, by measuring its peak area using hydrophilic interaction chromatography-ultraviolet detection-mass spectroscopy. The method as outlined in Montasser et al. was followed, using HILIC-UV-MS to quantitate the decrease of UDP-Gal as a measure of β4GALT1 activity. In particular, the decrease of UDP-Gal could be measured using UV detection and the corresponding increase of GlcNAc-Gal could be measured using MS.
The glycosyl donor was 1.7 nmol UDP-Gal; the glycosyltransferase was 1.1 pmol β4GALT1; and the glycosyl acceptor was 500 nmol GlcNAc. All samples were analyzed using an Acquity UPLC I-Class coupled with Vion IMS Q-Tof (Waters, Milford, MA, USA). A Waters Acquity UPLC Glycoprotein BEH Amide chromatographic column (300 Å, 150 mm×2.1 mm, 1.7 μm) was used to separate the analytes with a column temperature of 45° C. and a flow rate of 0.2 mL/minute. Mobile phase A was 50 mM ammonium acetate at a pH 7.5, and mobile phase B was 5% (v/v) 25 mM ammonium acetate at a pH 7.5 in acetonitrile. A 1 μL aliquot of each mixture (wildtype and mutant β4GALT1) was injected for analysis.
The difference in activity between the wildtype and mutant β4GALT1 was tested using paired two-sided Student's t-test.

[3] = system: β4GALT1; assay: HILIC-FLR-MS based assay of β4GALT1 activity with 2-AB-G0F labeling substrate; conditions: 1.1 pmol B4GALT1, 1.7 nmol UDP-Gal, 10 pmol 2-AB-G0F, room temperature, 0 to 60 minutes; FIG. 8, 12, 13
Method: Specifically, the enzymatic activities were measured using uridine diphosphate galactose (UDP-Gal) as a donor substrate and a labeled glycan (2-AB-G0F) as the labeling substrate. The experiment was carried out over eight different time points.
The enzymatic reaction was initiated by adding 1.1 pmol of B4GALT1 into a mixture of 1.7 nmol UDP-Gal (the glycosyl donor) and 10 pmol of 2-AB-G0F (the glycosyl acceptor), and the mixture was incubated at room temperature for 2, 5, 10, 15, 25, 40, and 60 minutes. The sample representing the initial time point (0 min) was prepared by omitting the enzyme. This HILIC-FLR-MS based method was used to quantitate both the decrease of UDP-Gal and the increase in formation of the products (G1F/G2F).
All samples were analyzed using an Acquity UPLC I-Class coupled with Vion IMS Q-Tof (Waters, Milford, MA, USA). A Waters Acquity UPLC Glycoprotein BEH Amide chromatographic column (300 Å, 150 mm×2.1 mm, 1.7 μm) was used to separate the analytes with a column temperature of 60° C. and a flow rate of 0.5 mL/minute. Mobile phase A was 50 mM ammonium acetate at a pH 4.4, and mobile phase B was acetonitrile. A 5 μL aliquot of each mixture was injected onto the column for HILIC-MS analysis. The sample run time was 12 minutes.
The samples were monitored using a UV detector at a wavelength of 280 nm and fluorescence with excitation at a wavelength of 330 nm and emission at a wavelength of 420 nm. The Waters Vion IMS Q-Tof mass spectrometer was operated in positive mode and the mass spectra were acquired with a m/z range between 600 and 2000. UDP-Gal was quantitated and the data were collected and processed using UNIFI software (Waters).

| Molecule | specific activity (enzyme activity) determined using a commercial kit [1] | decrease in UDP-Gal (UV peak area) ([2]; 1.7 nmol UDP-Gal, 1.1 pmol β4GALT1, 500 nmol GlcNAc, 2, 5, 10, 15, 25, 40, and 60 minutes, FIG. 5) | increase in the amounts of the product (GlcNAc-Gal) over time, MS ([2]; 2, 5, 10, 15, 25, 40, and 60 minutes, FIG. 6) | activity suggested by decrease in UDP-Gal ([2]; wildtype compared to mutant, FIG. 5) | fluorescent signal for 2-AB-G0F (labeling substrate) over time [3] | signal for the products 2-AB-G1F and 2-AB-G2F over time [3] |
| --- | --- | --- | --- | --- | --- | --- |
| Beta-1,4-galactosyltransferase 1 [wildtype β4GALT1] | less active than β4GALT1 with N352S mutation | significantly more | significantly more | higher activity | reduction in the signal; also recorded: declines substantially over time | increase substantially over time |
| B1 |  |  |  |  | less so | less so |
